From patent EP1160247A1, “6,5-Fused aromatic ring systems having enhanced phosphodiesterae IV inhibitory activity” (Euro-Celtique S.A., priority 2000, dated 2001)

Key:
PDE III = target: T1, PDE III (Homo sapiens, UniProt Q14432); experiment: Type III PDE activity, hydrolysis of [3H]-cyclic AMP; assay type: biochemical; conditions: enzyme from human platelets; cyclic AMP 0.2 µM; 2.5% dimethyl sulfoxide
T1 construct: Fractions containing PDE III activity are pooled and dialyzed; from tissue; host or cells: human platelets (100,000 x g supernatant, DEAE-Trisacryl M fraction)
T1 sequence (Q14432 whole entry): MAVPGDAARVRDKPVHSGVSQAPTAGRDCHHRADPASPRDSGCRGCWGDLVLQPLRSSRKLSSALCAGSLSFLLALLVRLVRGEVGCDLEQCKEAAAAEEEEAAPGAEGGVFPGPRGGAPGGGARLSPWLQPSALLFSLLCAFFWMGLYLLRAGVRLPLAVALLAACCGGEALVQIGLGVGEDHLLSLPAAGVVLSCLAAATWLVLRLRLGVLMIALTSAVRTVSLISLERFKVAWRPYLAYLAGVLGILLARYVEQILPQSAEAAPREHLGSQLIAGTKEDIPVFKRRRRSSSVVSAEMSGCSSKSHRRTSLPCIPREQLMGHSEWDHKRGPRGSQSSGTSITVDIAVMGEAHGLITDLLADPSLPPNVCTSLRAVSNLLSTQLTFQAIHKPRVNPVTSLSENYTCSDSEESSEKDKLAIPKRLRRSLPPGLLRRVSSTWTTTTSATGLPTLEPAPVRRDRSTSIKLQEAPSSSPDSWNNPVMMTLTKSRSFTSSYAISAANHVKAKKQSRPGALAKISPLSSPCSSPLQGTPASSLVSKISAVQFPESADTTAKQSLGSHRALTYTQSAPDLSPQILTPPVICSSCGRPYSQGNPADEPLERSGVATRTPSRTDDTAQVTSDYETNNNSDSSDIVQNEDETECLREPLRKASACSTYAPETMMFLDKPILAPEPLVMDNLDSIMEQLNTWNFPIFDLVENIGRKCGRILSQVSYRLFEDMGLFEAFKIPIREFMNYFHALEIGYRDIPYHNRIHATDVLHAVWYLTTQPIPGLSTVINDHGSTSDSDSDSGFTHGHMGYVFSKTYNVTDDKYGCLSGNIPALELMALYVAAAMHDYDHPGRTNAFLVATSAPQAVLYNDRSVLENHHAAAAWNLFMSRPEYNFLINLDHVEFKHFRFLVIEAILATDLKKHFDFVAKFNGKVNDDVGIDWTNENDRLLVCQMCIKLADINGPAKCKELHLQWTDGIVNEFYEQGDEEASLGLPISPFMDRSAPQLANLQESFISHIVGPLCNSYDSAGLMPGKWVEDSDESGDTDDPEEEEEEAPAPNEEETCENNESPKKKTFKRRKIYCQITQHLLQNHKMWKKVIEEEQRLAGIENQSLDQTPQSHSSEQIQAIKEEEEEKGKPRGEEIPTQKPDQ
Protocol: The Type III PDE is isolated from human platelets using a procedure similar to that previously described by Weishaar, R.E.; Burrows, S.D.; Kobylarg, D.C., Quade, N.M.; Evans, D.B., Biochem. Pharmacol., 35:787, 1986. Briefly, 1-2 units of platelets are suspended in an equal volume of buffer (20 mM Tris-HCl, pH 7.5, containing 2 mM magnesium acetate, 1 mM dithiothreitol, and 5 mM Na2 EDTA). The protease inhibitor phenyl methyl-sulfonyl fluoride (PMSF) is also included in this buffer at a final concentration of 200 µM. The suspension is homogenized using a polytron and the homogenate centrifuged at 100,000 x g for 60 minutes. This and all subsequent procedures are performed at 0-4°C. The supernatant is then filtered through four layers of gauze and applied to a DEAE-Trisacryl M column, previously equilibrated with buffer B (20 mM Tris-HCl, pH 7.5, containing 1 mM magnesium acetate, 1 mM dithiothreitol and 200 µM PMSF). After application of the sample, the column is washed with several bed volumes of buffer B, after which the different forms of PDE are eluted from the column using two successive linear NaCl gradients (0.05-0.15 M, 300 ml total; 0.15-0.40 M, 200 ml total). Five milliliter fractions are collected and assayed for cyclic AMP and cyclic GMP PDE activity. Fractions containing PDE III activity are pooled and dialyzed overnight against 4 liters of buffer B. The dialyzed PDE III is then concentrated to 10% of the original volume, diluted to 50% with ethylene glycol monoethyl ether and stored at -20°C.
Enzyme activity is assessed by measuring the hydrolysis of [^3H]-cyclic AMP, as described by Thompson, W.J., Teraski, W.L., Epstein, P.N., Strada, S.J.: Adv. Cyclic Nucleotide Res. 10:69, 1979. The cyclic AMP concentration used in this assay is 0.2 µM, which approximates to the Km value. Protein concentration is adjusted to ensure that no more than 15% of the available substrate is hydrolyzed during the incubation period.
All test compounds are dissolved in dimethyl sulfoxide (final concentration of 2.5%).
The compounds are tested over concentration range: 0.1, 1, 10, 100 uM (n=1), and IC50 determinations are made using 5 appropriate concentrations (n=2).

PDE V = target: T2, PDE V (Homo sapiens, UniProt O76074); experiment: Type V PDE activity, hydrolysis of [3H]-cyclic GMP; assay type: biochemical; conditions: enzyme from platelets; cyclic GMP 0.2 uM; 2.5% dimethyl sulfoxide
T2 construct: from tissue; host or cells: platelets (supernatant, DEAE-Trisacryl M fraction)
Protocol: Briefly, 1-2 units of platelets are suspended in an equal volume of buffer A (20 mM Tris-HCl, pH 7.5, containing 2 mM magnesium acetate, 1 mM dithiothreitol, and 5 mM Na2EDTA) using a polytron. The proteinase inhibitor phenylmethylsulfonyl fluoride (PMSF) are also included in this buffer at a final concentration of 200 uM. This and all subsequent procedures are performed at 0-4°C. The homogenate is then centrifuged at […] for 60 minutes. The supernatant is then removed and filtered through four layers of gauze and applied to a DEAE-Trisacryl M column. The column is washed with several bed volumes of buffer B (20 mM Tris-HCl, pH 7.5, containing 2 mM magnesium acetate, 1 mM diothiothreitol, and […] PMSF) and eluted by two successive linear NaCl gradients (0.05-0.15 M, 300 ml total; 0.15-0.40 M, 200 ml total). Five ml fractions are collected and assayed for cyclic AMP and cyclic GMP PDE activity. Fractions that contain PDE V are pooled and dialyzed overnight against 4 L of buffer C (20 mM Tris-HCl, pH 7.5, containing 2 mM magnesium acetate and proteinase inhibitors). The dialyzed PDE V is then concentrated to 10% of the original volume, diluted to 50% with ethylene glycol monoethyl ether and stored at -20°C. PDE V can typically be retained for up to four weeks with little or no loss of activity.
The reference Type V PDE inhibitor zaprinast is evaluated with each assay.

| Structure (SMILES) | IC50 (PDE III) [µM] | IC50 (PDE V) [µM] |
| --- | --- | --- |
| CC(C)(C)c1cc(Cc2nc3cc(Cl)cc(C#Cc4ccccn4)c3o2)cc(C(C)(C)C)c1O [Example 1, 5-chloro-2-(3,5-di-t-butyl-4-hydroxy-benzyl)-7-(2-(2-pyridyl)-ethynyl)-benzoxazole] | > 300 | > 300 |
| CC(C)(C)c1cc(Cc2nc3cccc(C#Cc4ccccn4)c3o2)cc(C(C)(C)C)c1O [Example 2, 2-(3,5-di-t-butyl-4-hydroxy-benzyl)-7-(2-(2-pyridyl)-ethynyl)-benzoxazole] | > 300 | 35.1 |
| CC(C)(C)c1cc(Cc2nc3cc(Cl)cc(C#Cc4nccs4)c3o2)cc(C(C)(C)C)c1O [Example 3, 5-chloro-2-(3,5-di-t-butyl-4-hydroxy-benzyl)-7-(2-(2-thiazolyl)-ethynyl)-benzoxazole] | > 300 | > 300 |
| COc1ccc(C2CNC(=O)C2)cc1OC1CCCC1 (stereo not shown) [Rolipram, reference compound] | 620 |  |
